In patent US20030144346A1, “Methods and compositions for regulation of 5-alpha reductase activity” (priority 1997, published 2003):

What was measured:
[1] = target: T1, type 1 human 5α-reductase (HRED1) (Homo sapiens, UniProt P18405); experiment: Whole cell assay of 5α-reductase, type 1 isoenzyme; format: cell-based; parameters: expressed in transfected cells; host or cells: rat 1A cells infected with pMV7 retrovirus;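 also: intact rat 1A cells engineered to express the human type 1 5α-reductase isozyme serve as the enzyme source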
T1 sequence (P18405 1-259): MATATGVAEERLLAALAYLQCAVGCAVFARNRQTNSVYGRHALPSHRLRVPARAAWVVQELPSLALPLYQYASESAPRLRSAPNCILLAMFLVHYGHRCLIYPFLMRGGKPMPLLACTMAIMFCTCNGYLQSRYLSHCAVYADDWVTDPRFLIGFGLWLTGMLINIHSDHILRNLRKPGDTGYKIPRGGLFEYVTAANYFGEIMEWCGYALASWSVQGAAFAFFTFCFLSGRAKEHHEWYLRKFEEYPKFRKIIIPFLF

[2] = target: T2, type 2 human 5α-reductase (HRED2) (Homo sapiens, UniProt P31213); experiment: Cell free assay of 5α-reductase, microsomes of rat 1A cells expressing type 2 isoenzyme (HRED2); format: biochemical; parameters: expressed in transfected cells; host or cells: rat 1A cells infected with pMV7 retrovirus; microsomes;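 also: labeled testosterone and its product dihydrotestosterone measured in microsomal reaction extracts via thin layer chromatography plus radioanalytic scanning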
T2 sequence (P31213 1-254): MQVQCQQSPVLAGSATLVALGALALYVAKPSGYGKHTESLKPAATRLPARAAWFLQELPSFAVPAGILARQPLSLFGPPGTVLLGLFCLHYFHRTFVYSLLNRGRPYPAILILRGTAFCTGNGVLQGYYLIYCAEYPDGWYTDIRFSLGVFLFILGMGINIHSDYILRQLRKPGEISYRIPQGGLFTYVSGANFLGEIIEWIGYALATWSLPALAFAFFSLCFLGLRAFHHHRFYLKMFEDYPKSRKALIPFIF

[3] = target: T2, type 2 human 5α-reductase (HRED2); experiment: Whole cell assay of 5α-reductase, type 2 isoenzyme; format: cell-based; parameters: expressed in transfected cells; host or cells: rat 1A cells infected with pMV7 retrovirus; conditions: for inhibition at 100 µM / HRED2 % Inhibition @ 100 μM: Table 7; for IC50: Table 7, read-out: HCRED2 IC50;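 as to all read-outs here: intact rat 1A cells genetically modified to carry human type 2 5α-reductase served as the enzyme source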
[4] = target: T1, type 1 human 5α-reductase (HRED1); experiment: Cell free assay of 5α-reductase, microsomes of rat 1A cells expressing type 1 isoenzyme (HRED1); format: biochemical; parameters: expressed in transfected cells; host or cells: rat 1A cells infected with pMV7 retrovirus; microsomes;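 also: microsomes from rat 1A cells expressing human type 1 5α-reductase, conversion of radiolabeled testosterone to dihydrotestosterone quantified by thin layer chromatography with radioanalytic scanning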
[5] = whole cell assay, Table 7, read-out: HCRED1 IC50
[6] = cell-free assay, read-out: IC50, type 2 isoenzyme
[7] = cell-free assay, read-out: IC50, type 1 isoenzyme
[8] = cell free assay, Table 4 quinones, read-out: HRED2 IC50
[9] = read-out: HRED2 % Inhibition @ 100 μM
[10] = cell free assay, Table 4 quinones, read-out: HRED1 IC50
[11] = read-out: HRED1 % Inhibition @ 100 μM
[12] = read-out: HRED2 % Inhibition @ 100 uM
[13] = read-out: HRED1 % Inhibition @ 100 uM
[14] = 100 uM, cell free assay, Table 1
[15] = cell free assay, Table 1 flavanoids, read-out: HRED2 IC50
[16] = cell free assay, Table 1 flavanoids, read-out: HRED1 IC50
[17] = cell free assay, Table 2 catechols, read-out: HRED2 IC50
[18] = cell free assay, Table 2 catechols, read-out: HRED1 IC50
[19] = 100 μM, cell free assay, Table 4

CCCCCC#CCC#CCC#CCC#CCCCC(=O)O [5,8,11,14-Eocpsatetraynoic Acid, 5,8,11,14-eicosatetraynoic acid]
inhibition at 100 µM ([1]; whole cell assay, Table 7): 67%
IC50 [1, 5]: 22 µM
inhibition at 100 µM ([2]; 100 μM, cell free assay, Table 6, read-out: HRED2 % Inhibition @ 100 μM): 81%
IC50 [2, 6]: 3 µM
inhibition at 100 µM [3]: 86%
IC50 [3]: 2 µM
inhibition at 100 µM ([4]; 100 μM, cell free assay, Table 6, read-out: HRED1 % Inhibition @ 100 μM): 97%
IC50 [4, 7]: 15 µM

O=C1c2ccccc2C(=O)c2c1cc(S(=O)(=O)[O-])c(O)c2O.[Na+] [Alizarin Red 5, Alizarin Red S]
HRED1 % Inhibition @ 100 μM ([1]; whole cell assay, Table 7): 28%
IC50 [2, 8]: > 100 µM
IC50 [3]: > 100 µM

O=C1c2ccccc2C(=O)c2c1ccc(O)c2O [Alizarin]
inhibition at 100 µM ([1]; whole cell assay, Table 7): 75%
inhibitory activity in the whole cell assay, type 1 isoenzyme, in words ([1]; whole cell assay): very effective inhibitor
IC50 [1, 5]: 6 µM
inhibition at 100 µM [2, 9]: 54%
inhibition at 100 µM [3]: 27%
IC50 [3]: > 100 µM
IC50 [4, 10]: 3 µM
inhibitory activity against type 1 isoenzyme, in words ([4]; cell-free assay): very effective inhibitor
inhibition at 100 µM [4, 11]: 95%

CC/C=C\C/C=C\C/C=C\CCCCCCCC(=O)OC [Alpha-Linolenic Acid Me Ester]
HRED1 % Inhibition @ 100 μM ([1]; whole cell assay, Table 7): 24%
IC50 [1, 5]: > 100 µM
HRED2 % Inhibition @ 100 μM [3]: 18%
IC50 [3]: > 100 µM

Oc1ccc2c(O)c3ccccc3cc2c1O [Anthrarobin]
IC50 [1]: 6 µM
inhibition at 100 µM ([1]; whole cell assay, Table 7): 91%
inhibitory activity in the whole cell assay, type 1 isoenzyme, in words ([1]; whole cell assay): active
IC50 [2]: 50 µM
inhibition at 100 µM [2, 12]: 97%
inhibition at 100 µM [2, 9]: 97%
IC50 ([2]; read-out: HRED2 IC50, cell free assay, Table 4 quinones): 50 µM
inhibition at 100 µM [3]: 31%
IC50 [3]: > 100 µM
IC50 [4]: 4 µM
inhibition at 100 µM [4, 13]: 99%
inhibition at 100 µM [4, 11]: 99%
IC50 ([4]; read-out: HRED1 IC50, cell free assay, Table 4 quinones): 4 µM

COc1ccc(-c2coc3cc(O)cc(O)c3c2=O)cc1 [Biochanin a]
HRED1 % Inhibition @ 100 μM ([1]; whole cell assay, Table 7): 64%
IC50 [1, 5]: 64 µM
HRED2 % Inhibition @ 100 uM [2, 14]: 74%
IC50 [2, 15]: 17 µM
inhibitory activity against type 2 isoenzyme, in words ([2]; cell-free assay): effective inhibitors
inhibitory activity in the whole cell assay, type 2 isoenzyme, in words [3]: significant inhibitory activity
HRED2 % Inhibition @ 100 μM [3]: 93%
IC50 [3]: 5 µM
HRED1 % Inhibition @ 100 uM [4, 14]: 50%
IC50 [4, 16]: > 100 µM

O=C(/C=C/c1ccc(O)c(O)c1)OCCc1ccccc1 [Caffeic Acid Phenethyl Ester]
inhibitory activity in the whole cell assay, type 1 isoenzyme, in words ([1]; whole cell assay): active
IC50 [1, 5]: 8 µM
IC50 [2, 17]: > 100 µM
IC50 [3]: 7 µM
IC50 [4, 18]: 26 µM

Oc1ccccc1O [Catechol]
inhibition at 100 µM ([1]; whole cell assay, Table 7): 9%
IC50 [1, 5]: > 100 µM
IC50 [2, 17]: > 100 µM
inhibition at 100 µM [2, 12]: 0%
inhibition at 100 µM [3]: 3%
IC50 [3]: > 100 µM
IC50 [4, 18]: > 100 µM
inhibition at 100 µM [4, 13]: 5%

COc1cc(/C=C/C(=O)CC(=O)/C=C/c2ccc(O)c(OC)c2)ccc1O [Curcumin]
inhibition at 100 µM ([1]; whole cell assay, Table 7): 99%
inhibitory activity against type 2 isoenzyme, in words ([2]; cell-free assay): very effective inhibitor
inhibition at 100 µM [2, 12]: 87%
inhibition at 100 µM ([4]; 100 uM, cell free assay, Table 3, read-out: HRED1 % Inhibition @ 100 uM): 95%
inhibitory activity against type 1 isoenzyme, in words ([4]; cell-free assay): very effective inhibitor

O=c1c(-c2ccc(O)cc2)coc2cc(O)ccc12 [Daidzein]
HRED1 % Inhibition @ 100 μM ([1]; whole cell assay, Table 7): 9%
inhibitory activity against type 2 isoenzyme, in words ([2]; cell-free assay): effective inhibitors
inhibitory activity in the whole cell assay, type 2 isoenzyme, in words [3]: significant inhibitory activity

O=C(O)c1cc(O)c(O)c(O)c1 [Gallic Acid]
IC50 [1]: > 100 µM
inhibition at 100 µM ([1]; whole cell assay, Table 7): 13%
inhibition at 100 µM [3]: 0%
IC50 [3]: > 100 µM

CCCCC/C=C\C/C=C\C/C=C\CCCCC(=O)O[C@H]1CC[C@@]2(C)C(=CC[C@H]3[C@@H]4CC[C@H]([C@H](C)CCCC(C)C)[C@@]4(C)CC[C@@H]32)C1 [Gamma-Linolenic Acid Chol Ester]
HRED1 % Inhibition @ 100 μM ([1]; whole cell assay, Table 7): 12%
IC50 [1, 5]: > 100 µM
HRED2 % Inhibition @ 100 μM [3]: 11%
IC50 [3]: > 100 µM

CCCCC/C=C\C/C=C\C/C=C\CCCCC(=O)OC [Gamma-Linolenic Acid Me Ester]
HRED1 % Inhibition @ 100 μM ([1]; whole cell assay, Table 7): 49%
IC50 [1, 5]: > 100 µM
HRED2 % Inhibition @ 100 μM [3]: 26%
IC50 [3]: > 100 µM

O=c1c(-c2ccc(O)cc2)coc2cc(O)cc(O)c12 [Genistein]
inhibitory activity against type 2 isoenzyme, in words ([2]; cell-free assay): effective inhibitors
inhibitory activity in the whole cell assay, type 2 isoenzyme, in words [3]: significant inhibitory activity

CCCCCCCCCCCCCC(=O)OC1Cc2c(O)cc(O)cc2OC1c1cc(O)c(O)c(O)c1 (stereo not drawn) [HZIV 165]
HRED1 % Inhibition @ 100 μM ([1]; whole cell assay, Table 7): 97%
IC50 [1, 5]: 28 µM
HRED2 % Inhibition @ 100 μM [3]: 98%
IC50 [3]: 32 µM

CCCCCCCC(=O)OC1Cc2c(O)cc(O)cc2OC1c1cc(O)c(O)c(O)c1 (stereo not drawn) [HZIV 166]
HRED1 % Inhibition @ 100 μM ([1]; whole cell assay, Table 7): 89%
IC50 [1, 5]: 58 µM
HRED2 % Inhibition @ 100 μM [3]: 83%
IC50 [3]: 72 µM

CC(C)OC(=O)c1cc(O)c(O)c(O)c1 [Isopropyl Gallate]
inhibition at 100 µM ([1]; whole cell assay, Table 7): 0%
IC50 [1, 5]: > 100 µM
inhibition at 100 µM [3]: 0%
IC50 [3]: > 100 µM

CC(Cc1ccc(O)c(O)c1)C(C)Cc1ccc(O)c(O)c1 (stereo not drawn) [Nordihydrogaiaretic Acid, Nordihydroguaiaretic acid]
inhibitory activity in the whole cell assay, type 1 isoenzyme, in words ([1]; whole cell assay): active
HRED2 % Inhibition @ 100 uM ([2]; 100 uM, cell free assay, Table 2): 80%

O=C1c2ccccc2C(=O)c2c(O)ccc(O)c21 [Quinizarin]
inhibition at 100 µM ([2]; 100 μM, cell free assay, Table 4, read-out: HRED2 % Inhibition @ 100 μM): 7%
IC50 [2, 8]: > 100 µM
inhibition at 100 µM ([4]; 100 μM, cell free assay, Table 4, read-out: HRED1 % Inhibition @ 100 μM): 26%
IC50 [4, 10]: > 100 µM

C[C@@H]1O[C@@H](OC[C@H]2O[C@@H](Oc3c(-c4ccc(O)c(O)c4)oc4cc(O)cc(O)c4c3=O)[C@H](O)[C@@H](O)[C@@H]2O)[C@H](O)[C@H](O)[C@H]1O [Rutin]
IC50 [2, 15]: > 100 µM
IC50 ([2]; read-out: IC50, type 2 isoenzyme): > 100 µM
IC50 [4, 16]: > 100 µM
IC50 [4, 7]: > 100 µM

CC(C)(C)c1cc(O)ccc1O [T-butylhydroxyquinone]
HRED2 % Inhibition @ 100 μM [2, 19]: 4%
IC50 [2, 8]: > 100 µM
HRED1 % Inhibition @ 100 μM [4, 19]: 19%
IC50 [4, 10]: > 100 µM

O=C1c2c(O)cc(O)cc2O[C@H](c2ccc(O)c(O)c2)[C@H]1O [Taxifolin]
inhibition at 100 µM ([2]; 100 uM, cell free assay, Table 1, read-out: HRED2 % Inhibition @ 100 uM): 5%
IC50 [2, 15]: > 100 µM
IC50 [2, 6]: > 100 µM
inhibition at 100 µM ([4]; 100 uM, cell free assay, Table 1, read-out: HRED1 % Inhibition @ 100 uM): 5%
IC50 [4, 16]: > 100 µM
IC50 [4, 7]: > 100 µM
